Measured values from patent US20210128609A1, “ONCOLOGY TREATMENTS USING ZINC AGENTS” (XYLONIX IP HOLDINGS PTE. LTD., priority 2018, published 2021).

Assays:
Format in all cases: cell-based
MOLM-16 = test: CellTiter-Glo cell viability, MOLM-16
Procedure: (§1) The 50% inhibitory concentration (IC50) was determined in the cancer cell lines using CellTiter-Glo luminescent cell viability assay after incubation with different concentrations of active agents. Each cell line was treated with active Zn(II) agent, a standard chemotherapy drug as reference control, and culture medium as vehicle control. Cell Lines. All cell lines were cultured in media supplemented with 10-15% FBS, at a temperature of 37° C., 5% CO2, and 95% humidity. The reference control drug for all cell lines was cisplatin, to be used for genomic analysis. The cell lines tested, the tissue of origin are shown below in Table 1: Procedure for Determining Half Maximal Inhibition Concentration IC50 • 1. Harvested cells during the logarithmic growth period and count cell number using Count-star. • 2. Adjusted cell concentrations to 4.44×10^4 cells/mL with respective culture medium. • 3. Added 90 μL cell suspensions to two 96-well plates (plates A and B) with the final cell density of 4×10^3 cells/well. (cell concentration was adjusted according to the data base or density optimization assay.) • 4a. Next day: For the plates of TO reading: • 1) Added 10 μL culture medium to each well of plate A for TO reading. • 2) Equilibrated the plate and its content at RT for approximately 30 min. • 3) Added 50 μL CellTiter-Glo reagent to each well. • 4) Mixed content for 5 min on an orbital shaker to induce cell lysis. • 5) Allowed the plate to incubate at RT for 20 min to stabilize luminescent signal. • 6) Recorded luminescence (TO) using EnVision Multi Label Reader. • 4b. For the plates of test reading: • 1) Prepared 10× solution of Zn(II) agent test article. […] The formula for calculating surviving rate is shown below and the absolute IC50 (EC50) was calculated according to the dose-response curve generated by GraphPad Prism 5.0. • 12) The surviving rate (%)=(LumTest article−LumMedium control)/(LumNon-treated−LumMedium control)×100%.

Jurkat clone E6-1 = test: CellTiter-Glo cell viability, Jurkat clone E6-1
Procedure: as §1

Calu-3 = test: CellTiter-Glo cell viability, Calu-3
Procedure: as §1

MV-4-11 = test: CellTiter-Glo cell viability, MV-4-11
Procedure: as §1

OCI-AML2 = test: CellTiter-Glo cell viability, OCI-AML2
Procedure: as §1

U-937 = test: CellTiter-Glo cell viability, U-937
Procedure: as §1

Hep G2 = test: CellTiter-Glo cell viability, Hep G2
Procedure: as §1

HCC1954 = test: CellTiter-Glo cell viability, HCC1954
Procedure: as §1

EOL-1 = test: CellTiter-Glo cell viability, EOL-1
Procedure: as §1

A549 = test: CellTiter-Glo cell viability, A549
Procedure: The 50% inhibitory concentration (IC50) was determined in the cancer cell lines using CellTiter-Glo luminescent cell viability assay after incubation with different concentrations of active agents. Each cell line was treated with active Zn(II) agent, a standard chemotherapy drug as reference control, and culture medium as vehicle control. Cell Lines. All cell lines were cultured in media supplemented with 10-15% FBS, at a temperature of 37° C., 5% CO2, and 95% humidity. The reference control drug for all cell lines was cisplatin, to be used for genomic analysis. The cell lines tested, the tissue of origin are shown below in Table 1: Procedure for Determining Half Maximal Inhibition Concentration IC50 • 1. Harvested cells during the logarithmic growth period and count cell number using Count-star. • 2. Adjusted cell concentrations to 4.44×10^4 cells/mL with respective culture medium. • 3. Added 90 μL cell suspensions to two 96-well plates (plates A and B) with the final cell density of 4×10^3 cells/well. (cell concentration was adjusted according to the data base or density optimization assay.) • 4a. […]

OCI-LY-19 = test: CellTiter-Glo cell viability, OCI-LY-19
Procedure: as §1

NCI-H446 = test: CellTiter-Glo cell viability, NCI-H446
Procedure: as §1

AsPC-1 = test: CellTiter-Glo cell viability, AsPC-1
Procedure: as §1

NCI-H929 = test: CellTiter-Glo cell viability, NCI-H929
Procedure: as §1

Raji = test: CellTiter-Glo cell viability, Raji
Procedure: as §1

MOLM-13 = test: CellTiter-Glo cell viability, MOLM-13
Procedure: as §1

Ramos = test: CellTiter-Glo cell viability, Ramos
Procedure: as §1

WSU-NHL = test: CellTiter-Glo cell viability, WSU-NHL
Procedure: as §1

SU-DHL-6 = test: CellTiter-Glo cell viability, SU-DHL-6
Procedure: as §1

Kasumi-1 = test: CellTiter-Glo cell viability, Kasumi-1
Procedure: as §1

[1] = 96 h, top conc. 50 μg/mL Zn(II) agent, 100 μM cisplatin

How did the “Absolute IC50” value (MOLM-16; 96 h, CellTiter-Glo) turn out when `N.N.[Cl][Pt][Cl]` [Cisplatin] was run?
Its value is 0.15 µg/mL.

What about the “% inhibition at top conc.” value (MOLM-16; [1]) of the same molecule?
Its value is 99.96%.

And the HillSlope (MOLM-16; 96 h dose-response fit)?
The HillSlope was −1.65.

And the “Absolute IC50” value (Jurkat clone E6-1; 96 h, CellTiter-Glo)?
The value was 0.17 µg/mL.

And the “% inhibition at top conc.” value (Jurkat clone E6-1; [1])?
Its value is 99.99%.

What about the HillSlope (Jurkat clone E6-1; 96 h dose-response fit) of the same molecule?
Its HillSlope is −2.37.

And the “Absolute IC50” value (Calu-3; 96 h, CellTiter-Glo)?
Its value is 0.30 µg/mL.

And the “% inhibition at top conc.” value (Calu-3; [1])?
Its value is 82.29%.

And the HillSlope (Calu-3; 96 h dose-response fit)?
The HillSlope was −1.15.

What about the “Absolute IC50” value (MV-4-11; 96 h, CellTiter-Glo) of the same molecule?
Its value is 0.09 µg/mL.

What about the “% inhibition at top conc.” value (MV-4-11; [1]) of the same molecule?
Its value is 99.99%.

And the HillSlope (MV-4-11; 96 h dose-response fit)?
The HillSlope was −2.06.

And the “Absolute IC50” value (OCI-AML2; 96 h, CellTiter-Glo)?
Its value is 0.33 µg/mL.

What about the “% inhibition at top conc.” value (OCI-AML2; [1]) of the same molecule?
The value was 99.96%.

What about the HillSlope (OCI-AML2; 96 h dose-response fit) of the same molecule?
The HillSlope was −2.66.

What about the “Absolute IC50” value (U-937; 96 h, CellTiter-Glo) of the same molecule?
Its value is 0.37 µg/mL.

What about the “% inhibition at top conc.” value (U-937; [1]) of the same molecule?
The value was 99.99%.

What about the HillSlope (U-937; 96 h dose-response fit) of the same molecule?
The HillSlope was −4.57.

And the “Absolute IC50” value (Hep G2; 96 h, CellTiter-Glo)?
The value was 0.55 µg/mL.

What about the “% inhibition at top conc.” value (Hep G2; [1]) of the same molecule?
Its value is 98.96%.

What about the HillSlope (Hep G2; 96 h dose-response fit) of the same molecule?
Its HillSlope is −0.90.

What about the “Absolute IC50” value (HCC1954; 96 h, CellTiter-Glo) of the same molecule?
Its value is 1.59 µg/mL.

And the “% inhibition at top conc.” value (HCC1954; [1])?
Its value is 99.87%.

And the HillSlope (HCC1954; 96 h dose-response fit)?
The HillSlope was −1.98.

And the “Absolute IC50” value (EOL-1; 96 h, CellTiter-Glo)?
The value was 0.16 µg/mL.

And the “% inhibition at top conc.” value (EOL-1; [1])?
The value was 99.99%.

What about the HillSlope (EOL-1; 96 h dose-response fit) of the same molecule?
The HillSlope was −1.87.

What about the “% inhibition at top conc.” value (A549; [1]) of the same molecule?
Its value is 97.57%.

What about the HillSlope (A549; 96 h dose-response fit) of the same molecule?
Its HillSlope is −0.93.

What about the “Absolute IC50” value (OCI-LY-19; 96 h, CellTiter-Glo) of the same molecule?
The value was 0.04 µg/mL.

What about the “% inhibition at top conc.” value (OCI-LY-19; [1]) of the same molecule?
Its value is 99.99%.

What about the HillSlope (OCI-LY-19; 96 h dose-response fit) of the same molecule?
Its HillSlope is −2.61.

What about the “Absolute IC50” value (NCI-H446; 96 h, CellTiter-Glo) of the same molecule?
The value was 0.35 µg/mL.

And the “% inhibition at top conc.” value (NCI-H446; [1])?
The value was 99.99%.

And the HillSlope (NCI-H446; 96 h dose-response fit)?
The HillSlope was −0.65.

What about the “Absolute IC50” value (AsPC-1; 96 h, CellTiter-Glo) of the same molecule?
Its value is 0.67 µg/mL.

And the “% inhibition at top conc.” value (AsPC-1; [1])?
The value was 81.58%.

What about the HillSlope (AsPC-1; 96 h dose-response fit) of the same molecule?
Its HillSlope is −1.47.

And the “Absolute IC50” value (NCI-H929; 96 h, CellTiter-Glo)?
Its value is 0.64 µg/mL.

And the “% inhibition at top conc.” value (NCI-H929; [1])?
The value was 99.98%.

And the HillSlope (NCI-H929; 96 h dose-response fit)?
The HillSlope was −1.83.

And the “Absolute IC50” value (Raji; 96 h, CellTiter-Glo)?
Its value is 0.50 µg/mL.

And the “% inhibition at top conc.” value (Raji; [1])?
Its value is 99.57%.

And the HillSlope (Raji; 96 h dose-response fit)?
The HillSlope was −2.98.

And the “Absolute IC50” value (MOLM-13; 96 h, CellTiter-Glo)?
The value was 0.16 µg/mL.

And the “% inhibition at top conc.” value (MOLM-13; [1])?
The value was 99.98%.

What about the HillSlope (MOLM-13; 96 h dose-response fit) of the same molecule?
The HillSlope was −2.08.

What about the “Absolute IC50” value (Ramos; 96 h, CellTiter-Glo) of the same molecule?
Its value is 0.17 µg/mL.

What about the “% inhibition at top conc.” value (Ramos; [1]) of the same molecule?
Its value is 99.99%.

What about the HillSlope (Ramos; 96 h dose-response fit) of the same molecule?
The HillSlope was −2.13.

What about the “Absolute IC50” value (WSU-NHL; 96 h, CellTiter-Glo) of the same molecule?
The value was 0.06 µg/mL.

And the “% inhibition at top conc.” value (WSU-NHL; [1])?
Its value is 99.99%.

What about the HillSlope (WSU-NHL; 96 h dose-response fit) of the same molecule?
Its HillSlope is −1.77.

What about the “Absolute IC50” value (SU-DHL-6; 96 h, CellTiter-Glo) of the same molecule?
The value was 0.38 µg/mL.

And the “% inhibition at top conc.” value (SU-DHL-6; [1])?
The value was 99.99%.

And the HillSlope (SU-DHL-6; 96 h dose-response fit)?
The HillSlope was −1.11.

And the “Absolute IC50” value (Kasumi-1; 96 h, CellTiter-Glo)?
The value was 0.71 µg/mL.

What about the “% inhibition at top conc.” value (Kasumi-1; [1]) of the same molecule?
The value was 99.98%.

What about the HillSlope (Kasumi-1; 96 h dose-response fit) of the same molecule?
The HillSlope was −1.18.
